Paper PMC6731340, “Evaluation of synergy between host and pathogen-directed therapies against intracellular Leishmania donovani” (International Journal for Parasitology: Drugs and Drug …, 2019)
Where two headings read alike, the source gives them in different places.

What was measured:
[1] = test system: L. donovani extracellular promastigotes; experiment: Resazurin-based drug susceptibility assay on promastigotes; format: cell-based; conditions: Leishmania donovani, 72 h drug at 25 °C
Procedure: (§1) Leishmania donovani strain (ATCC 30030; ATCC; Manassas VA) was used in all studies and grown via manufacture's specification. The promastigotes screening were performed as described previously, with few modifications ([Kulshrestha et al., 2013]). Late log-phase promastigotes (1 × 10^5 per one 96-well) were incubated with drug for 72 h at 25 °C. Resazurin was added [0.002% (w/v)], incubated for 24 h and assessed fluorometrically (ex: 544 nm/em: 590 nm; SpectraMax M2, Molecular Devices, Sunnyvale, CA). L. donovani axenic amastigotes were differentiated as described previously, with little modification ([Ephros et al., 1997]). Late log-phase promastigotes were differentiated into axenic amastigotes in a low pH (6.3) medium for 96 h at 37 °C. Fully differentiated axenic amastigotes (2 × 10^5 per one 96-well) were incubated 72 h with drug at 37 °C, and resazurin assay was then performed as indicated above.

[2] = test system: L. donovani axenic amastigotes; experiment: Resazurin-based drug susceptibility assay on axenic amastigotes; format: cell-based; conditions: Leishmania donovani, 72 h drug at 37 °C
Procedure: as §1

[3] = test system: L. donovani intracellular amastigotes; experiment: Image-based (Giemsa) evaluation of intracellular anti-leishmanial activity in infected BMDMs; format: cell-based; conditions: Leishmania donovani, BMDM, 72 h, Giemsa stain
Procedure: An image-based anti-leishmanial assay was used as described previously with slight modification ([Collier et al., 2016]). BMDMs seeded on round glass coverslips (5 × 10^5 cells per one 24-well) were allowed to adhere overnight, infected with stationary phase L. donovani promastigotes (MOI 1:10), incubated overnight, and washed (3×) with warmed serum-free media. Compounds were added, incubated for 72 h, washed (3×) with PBS, fixed with methanol and stained with Giemsa stain (1:20 in H2O). An EVOS XL (100×, Thermo Fisher Scientific) was used for imaging. L. donovani amastigotes per 100 macrophages was determined, in duplicate, and in a blinded fashion.

[4] = test system: L. donovani intracellular amastigotes; experiment: Modified resazurin-based viability analysis of L. donovani in infected macrophages; format: cell-based, Leishmania donovani; conditions: for Selectivity (LD50/IC50): LD50 macrophages / resazurin intracellular IC50; for IC50: Leishmania donovani, BMDM, infected BMDMs, 72 h
Procedure: BMDMs (1 × 10^5 per one 96-well) infected overnight with stationary phase L. donovani promastigotes (MOI 1:10), were washed (3×) with serum free DMEM, and incubated with compounds for 72 h. Then, parasites were rescued with BMDM controlled lysis, modified from a previous report ([Kiderlen and Kaye, 1990]). In brief, cells were washed with serum-free HEPES-buffered RPMI (HEPES-RPMI; 1×), lysed (20 min) with HEPES-RPMI (100 μL/well) with 0.008% SDS (w/v), SDS neutralized with HEPES-RPMI with 17% FBS (v/v; 150 μL/well) and placed in an air-tight container (25 °C for 96 h). Resazurin [0.02% (w/v); 25 μL] was added, incubated (24 h) and was assessed fluorometrically.

[5] = test system: Mouse bone marrow-derived macrophages (BMDMs); experiment: LDH mammalian cytotoxicity assay; conditions: 50% Lethal Dose for BMDMs
From the text: (§2) Mouse bone marrow-derived macrophages (BMDMs) isolation from BALB/c mice and culture was done as described previously ([Weischenfeldt and Porse, 2008]), and approved by the Animal Care and Use Committees at UNC. A lactate dehydrogenase (LDH) assay (Thermo Fisher Scientific, Grand Island, NY) was used to determine cytotoxicity per manufacturer's directions.

[6] = test system: Mouse bone marrow-derived macrophages (BMDMs); conditions: BALB/c
From the text: as §2

VL patients = test system: VL patients; set-up: method as in Sundar et al., 2008; conditions: AMB alone; ref Sundar et al., 2008; cited from earlier work
[7] = test system: intracellular L. mexicana; set-up: method as in Pan et al., 2012; conditions: ref Pan et al., 2012; read-out: IC50, anti-leishmanial activity against intracellular L. mexicana; cited from earlier work
promastigotes = test system: promastigotes; set-up: method as in Pan et al., 2012; conditions: ref Pan et al., 2012; read-out: IC50, direct activity against promastigotes; cited from earlier work
[8] = set-up: method as in earlier work; conditions: ref Mishra and Singh, 2013; Perez-Victoria et al., 2006; Seifert et al., 2007; cited from earlier work
L. donovani amastigotes = test system: L. donovani amastigotes; set-up: method as in De Muylder et al., 2011; conditions: intracellular vs axenically grown amastigotes; ref De Muylder et al., 2011; cited from earlier work

NCC(=O)Nc1ccc(-n2nc(C(F)(F)F)cc2-c2ccc3c(ccc4ccccc43)c2)cc1 [AR-12]
IC50 [1]: 3.3 ± 0.42 µM | IC50 [2]: 3.45 ± 0.07 µM | IC50 [3]: 1.18 ± 0.18 µM | Selectivity (LD50/IC50) [4]: 8 | IC50 [4]: 1.44 ± 0.08 µM | Cytotoxicity LD50 [5]: 11.1 ± 2.5 µM

C[C@@H]1[C@H](O)[C@@H](C)/C=C/C=C/C=C/C=C/C=C/C=C/C=C/[C@H](O[C@@H]2O[C@H](C)[C@@H](O)[C@H](N)[C@@H]2O)C[C@@H]2O[C@](O)(C[C@@H](O)C[C@@H](O)[C@H](O)CC[C@@H](O)C[C@@H](O)CC(=O)O[C@H]1C)C[C@H](O)[C@H]2C(=O)O [Amphotericin B, amphotericin B]
IC50 [1]: 0.047 ± 0.004 µM | IC50 [2]: 0.049 ± 0.005 µM | IC50 [3]: 0.024 ± 0.001 µM | Selectivity (LD50/IC50) [4]: 1167 | IC50 [4]: 0.033 ± 0.011 µM | Cytotoxicity LD50 [6]: 38.5 ± 4.95 µM | VL patients cured (VL patients): 91%

CC(=O)C1=CC[C@H]2[C@@H]3CCC4=CC(=O)CC[C@]4(C)[C@H]3C[C@@H](O)[C@]12C [DNER, 6,7-dihydroneridienone]
IC50 [7]: 1400 nM | IC50 (promastigotes): 9200 nM

CCCCCCCCCCCCCCCCOP(=O)([O-])OCC[N+](C)(C)C [Miltefosine, miltefosine]
IC50 [1]: 5.4 ± 0.42 µM | IC50 [3]: 1.1 ± 0.37 µM | IC50 [4]: 0.55 ± 0.15 µM | drug half-life [8]: ~150 h | Cytotoxicity LD50 [5]: 62.5 ± 4.95 µM

NC[C@@H]1O[C@H](O[C@H]2[C@@H](O)[C@H](O[C@@H]3[C@@H](O)[C@H](N)C[C@H](N)[C@H]3O[C@H]3O[C@H](CO)[C@@H](O)[C@H](O)[C@H]3N)O[C@@H]2CO)[C@H](N)[C@@H](O)[C@@H]1O [Paromomycin, paromomycin]
IC50 [1]: 59 ± 5.66 µM | IC50 [2]: 22 ± 4.24 µM | IC50 [3]: 15.2 ± 4.67 µM | Selectivity (LD50/IC50) [4]: >68 | IC50 [4]: 11.6 ± 0.42 µM | Cytotoxicity LD50 [5]: >800 µM

C=CCN1CC[C@]23c4c5ccc(O)c4O[C@H]2/C(=N/N=C2\CC[C@@]4(O)[C@H]6Cc7ccc(O)c8c7[C@@]4(CCN6CC=C)[C@H]2O8)CC[C@@]3(O)[C@H]1C5 [naloxonazine]
anti-leishmanial activity (L. donovani amastigotes): found only against intracellular L. donovani amastigotes
